Laboratory results: ChEMBL document CHEMBL1201862, “PubChem BioAssay data set” (2004)
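Results reflect a 48-hour exposure of cells in 96-well plates to compound at five concentrations. GI50: concentration for 50% inhibition of growth.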 The source made the active and inactive calls. Cut-off read from the data, not from the text of the source: active = GI50 up to about 1.1 µM and inactive = higher.

Assays:
Assay in all cases: DTP human tumour cell line panel, 48 h
BT-549 = system: BT-549
M19-MEL = system: M19-MEL
KM-20L2 = system: KM-20L2
HOP-18 = system: HOP-18
DLD-1 = system: DLD-1
SNB-78 = system: SNB-78
DMS-114 = system: DMS-114
XF498 = system: XF498

| SMILES | GI50 (BT-549) | GI50 (M19-MEL) | GI50 (HOP-18) | GI50 (DLD-1) | GI50 (DMS-114) | also measured |
| --- | --- | --- | --- | --- | --- | --- |
| C[Si](C)(c1ccc(C(=O)O)cc1)c1ccc(C(=O)O)cc1 | > 100 µM (inactive) |  |  |  |  |  |
| COc1c(NC(C)=O)c2ccccc2c2ccccc12 | > 100 µM (inactive) |  |  |  |  |  |
| O=C(O)c1cccc2cccc(-c3cccc4cccc(C(=O)O)c34)c12 | > 100 µM (inactive) |  |  |  |  |  |
| O=C1N/C(=N/N=C\C(O)C(O)C(O)C(O)CO)N/C1=C/c1ccc(Cl)cc1 (stereo not given) | > 100 µM (inactive) |  |  |  |  |  |
| COc1cccc(C=O)c1[O-].COc1cccc(C=O)c1[O-].[Zn+2] |  | 31.8 µM (inactive) | 40.9 µM (inactive) | 47 µM (inactive) | 51.6 µM (inactive) | GI50 (KM-20L2): > 100 µM (inactive); GI50 (SNB-78): > 100 µM (inactive) |
| C[C@]12CCC(=O)C=C1C[C@@H](O)[C@@H]1[C@@H]2CC[C@@]2(C)[C@H]1CC[C@]2(C)O | > 100 µM (inactive) |  |  |  |  |  |
| COc1ccc([C@]23CCN4COC[C@@H]([C@H]42)C2(CC3)OCC(C)(C)CO2)cc1OC | > 100 µM (inactive) |  |  |  |  |  |
| O=[N+]([O-])c1ccc(-c2nc3ccccc3o2)cc1 | > 100 µM (inactive) |  |  |  |  |  |
| CC1CCC2C(C)(C)CC3(C)CCC1C23O (stereo not given) | 18.1 µM (inactive) |  |  |  |  |  |
| CC(C)(C)OC(=O)N1CCC2(C)CC(=O)CC=C12 (stereo not given) | > 100 µM (inactive) |  |  |  |  |  |
| N#CC1C[C@@H]2CC3(CCC2CN1C(=O)c1ccccc1)OCCO3 (stereo not given in full) |  | > 100 µM (inactive) | > 100 µM (inactive) | > 100 µM (inactive) | > 100 µM (inactive) | GI50 (XF498): > 100 µM (inactive); GI50 (KM-20L2): > 100 µM (inactive); GI50 (SNB-78): > 100 µM (inactive) |
| CN(C)NC(=S)NC12CC3CC(CC(C3)C1)C2 |  | > 100 µM (inactive) | > 100 µM (inactive) | > 100 µM (inactive) | > 100 µM (inactive) | GI50 (XF498): > 100 µM (inactive); GI50 (KM-20L2): > 100 µM (inactive); GI50 (SNB-78): > 100 µM (inactive) |
| COc1ccccc1C1c2cc3c(cc2OC(O)(CO)C1C(=O)O)OCO3.COc1ccccc1C1c2cc3c(cc2OC2(O)COC(=O)C12)OCO3 (stereo not given) |  | > 100 µM (inactive) | > 100 µM (inactive) | > 100 µM (inactive) | > 100 µM (inactive) | GI50 (KM-20L2): > 100 µM (inactive); GI50 (SNB-78): > 100 µM (inactive) |
| O=c1cc(-c2ccccc2)[nH]c2c(F)ccc(F)c12 |  | 41.4 µM (inactive) | > 100 µM (inactive) | > 100 µM (inactive) | 28.7 µM (inactive) |  |
| O=C1/C(=N\n2c(S)nnc2-c2ccncc2)c2cc(Cl)ccc2N1CN1CCCCC1 | 25.9 µM (inactive) |  |  |  |  |  |
| CCOC1C(Br)Cn2c(=O)c3cc4ccccc4cc3c(=O)n2C1C (stereo not given) |  | 55.6 µM (inactive) |  | 54.3 µM (inactive) | 44.8 µM (inactive) | GI50 (XF498): 31 µM (inactive); GI50 (KM-20L2): 68.9 µM (inactive); GI50 (SNB-78): > 100 µM (inactive) |

| SMILES | GI50 (BT-549) | GI50 (M19-MEL) | GI50 (HOP-18) | GI50 (DLD-1) | GI50 (DMS-114) | also measured |
| --- | --- | --- | --- | --- | --- | --- |
| O=C1CCCCC1C1(O)C(=O)Nc2cc(F)ccc21 (stereo not given) |  | > 100 µM (inactive) | > 100 µM (inactive) | > 100 µM (inactive) | > 100 µM (inactive) | GI50 (XF498): > 100 µM (inactive); GI50 (KM-20L2): > 100 µM (inactive); GI50 (SNB-78): > 100 µM (inactive) |
| CSc1nc2ccccc2c(=O)n1/N=C1\C(=O)N(CN2CCCCC2)c2ccc(Cl)cc21 | 15 µM (inactive) |  |  |  |  |  |
| O=C(Cc1ccc(Cl)c(Cl)c1)NCCCN1CCN(CCCN2CCCCC2)CC1 | 21.9 µM (inactive) |  |  |  |  |  |
| OCC(S)CS.[Bi] (stereo not given) | 9.79 µM (inactive) |  |  |  |  |  |
| NC1=NNC(=O)c2nnc3c(C(=O)O)cnn3c2S1 |  | > 100 µM (inactive) | > 100 µM (inactive) | > 100 µM (inactive) | > 100 µM (inactive) | GI50 (KM-20L2): > 100 µM (inactive) |
| COc1ccc(NC(=O)CC(=O)N2N=C(N(CCC#N)c3cccc(C)c3)CC2c2ccccc2)cc1 (stereo not given) |  | > 100 µM (inactive) | > 100 µM (inactive) | > 100 µM (inactive) |  | GI50 (KM-20L2): > 100 µM (inactive); GI50 (SNB-78): > 100 µM (inactive) |
| CC12c3c4ccc(C=O)c3Oc3ccc(C=O)c(c31)Oc1ccc(C=O)c(c12)O4 | > 25 µM (inactive) |  |  |  |  |  |
| CC(=O)Nc1ccc(/C=C2\N=C(c3ccccc3)OC2=O)cc1 |  |  | > 100 µM (inactive) | > 100 µM (inactive) | 1 µM (active) | GI50 (KM-20L2): > 100 µM (inactive) |
| Cc1cc(N(CCC#N)CCC#N)ccc1/C=C1N=C(/C=C\c2ccccc2)N(c2ccc(Cl)cc2)C\1=O | 1.49 µM (inactive) | 1.57 µM (inactive) | > 100 µM (inactive) |  | 2.13 µM (inactive) | GI50 (XF498): > 100 µM (inactive); GI50 (SNB-78): > 100 µM (inactive) |
| N#CCCN(CCC#N)c1ccc(/C=C2\N=C(c3ccccc3)N(c3ccc(C(=O)O)cc3)C2=O)cc1 | 24.4 µM (inactive) |  |  |  |  |  |
| CCOC(=O)[C@H]1CSC[C@@H](C(=O)OC)N1 |  | > 100 µM (inactive) |  | > 100 µM (inactive) | > 100 µM (inactive) |  |
| CN1C2CCC1CC(CCOC(c1ccc(F)cc1)c1ccc(F)cc1)C2 (stereo not given) | 16.9 µM (inactive) |  |  |  |  |  |
| Cc1ccc(-c2c(-c3ccccc3)[nH]c(C)c2C(=O)ONC(=O)c2ccccc2)cc1 | 3.52 µM (inactive) |  |  |  |  |  |
| O=C1N=C2SC(=S)N=C(S)N2NC12c1ccccc1-c1ccccc12 | > 10 µM (inactive) |  |  |  |  |  |
| CN(C)c1ccc(/C=C2\C[C@H]3[C@@H]4CCC5=CC(=O)CC[C@]5(C)[C@H]4CC[C@]3(C)C2=O)cc1 | 51.2 µM (inactive) |  |  |  |  |  |
